Columns and labels:
[1] = target: T1, photosystem II (PS II) (Spinacia oleracea, UniProt P69560); experiment: Measurement of the PS II activity in thylakoid membranes (DCPIP reduction, Experimental Part 3, Table E1); format: biochemical; conditions: spinach thylakoid membranes
T1 construct: the chloroplasts were osmotically ruptured and the thylakoid membranes were then obtained by centrifugation; from tissue; host or cells: thylakoid membranes from fresh spinach leaves
Summary of the method: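 Spinach leaf thylakoid membranes in 50 mM phosphate pH 6.8, 10 mM KCl, 120 μM DCPIP, under light. Compounds added from 100 μM DMSO solution (2.5% DMSO final). DCPIP reduction read as absorbance decrease at 595 nm over 10 min at 22 °C, reported as percent-inhibition classes.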

[2] = system: Lolium rigidum; experiment: Post-emergence herbicidal action (Experimental Part 1, A); format: in vivo; conditions: application rate 1280 g/ha, rated visually after about 3 weeks
Summary of the method: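 Greenhouse post-emergence spray test; sandy loam; treatment at one-leaf stage (2–3 wk after sowing); WP/EC formulation, 0.5% additive, 600 l/ha; dose 1280 or 320 g/ha; visual rating ~3 wk later, 0–100% scale.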

| Structure (SMILES) | Effect (inhibition of PS II activity) [1] | Lolium rigidum, herbicidal activity [2] [%] |
| --- | --- | --- |
| CC1=CC(=O)N(c2cc(C(C)(C)C)on2)C1O (stereo not drawn) [I.1-162, 5-Hydroxy-4-methyl-1-(5-tert-butyl-1,2-isoxazol-3-yl)-1,5-dihydro-2H-pyrrol-2-one] | ++++ (inhibition≥90%) | – |
| CCC(=O)OC1C(C)=CC(=O)N1c1cc(C(C)(C)C)on1 (stereo not drawn) [I.5-162] | +++ (90%>inhibition≥70%) | 90 |

— patent US20200079765A1, “SUBSTITUTED HETEROARYL PYRROLONES AND SALTS THEREOF AND USE THEREOF AS HERBICIDAL ACTIVE SUBSTANCES” (Bayer CropScience Aktiengesellschaft, priority 2016, published 2020)
